The compounds below were run against T1, LRRK2 (Homo sapiens, UniProt Q5S007, G2019S) (assay: In Vitro LRRK2 LabChip Assay (LRRK2 Ki)). Conditions: Table 5 compounds (formula I).
T1 construct: purchased Invitrogen PV4882
Assay type: biochemical

T1 sequence (Q5S007 whole entry G2019S): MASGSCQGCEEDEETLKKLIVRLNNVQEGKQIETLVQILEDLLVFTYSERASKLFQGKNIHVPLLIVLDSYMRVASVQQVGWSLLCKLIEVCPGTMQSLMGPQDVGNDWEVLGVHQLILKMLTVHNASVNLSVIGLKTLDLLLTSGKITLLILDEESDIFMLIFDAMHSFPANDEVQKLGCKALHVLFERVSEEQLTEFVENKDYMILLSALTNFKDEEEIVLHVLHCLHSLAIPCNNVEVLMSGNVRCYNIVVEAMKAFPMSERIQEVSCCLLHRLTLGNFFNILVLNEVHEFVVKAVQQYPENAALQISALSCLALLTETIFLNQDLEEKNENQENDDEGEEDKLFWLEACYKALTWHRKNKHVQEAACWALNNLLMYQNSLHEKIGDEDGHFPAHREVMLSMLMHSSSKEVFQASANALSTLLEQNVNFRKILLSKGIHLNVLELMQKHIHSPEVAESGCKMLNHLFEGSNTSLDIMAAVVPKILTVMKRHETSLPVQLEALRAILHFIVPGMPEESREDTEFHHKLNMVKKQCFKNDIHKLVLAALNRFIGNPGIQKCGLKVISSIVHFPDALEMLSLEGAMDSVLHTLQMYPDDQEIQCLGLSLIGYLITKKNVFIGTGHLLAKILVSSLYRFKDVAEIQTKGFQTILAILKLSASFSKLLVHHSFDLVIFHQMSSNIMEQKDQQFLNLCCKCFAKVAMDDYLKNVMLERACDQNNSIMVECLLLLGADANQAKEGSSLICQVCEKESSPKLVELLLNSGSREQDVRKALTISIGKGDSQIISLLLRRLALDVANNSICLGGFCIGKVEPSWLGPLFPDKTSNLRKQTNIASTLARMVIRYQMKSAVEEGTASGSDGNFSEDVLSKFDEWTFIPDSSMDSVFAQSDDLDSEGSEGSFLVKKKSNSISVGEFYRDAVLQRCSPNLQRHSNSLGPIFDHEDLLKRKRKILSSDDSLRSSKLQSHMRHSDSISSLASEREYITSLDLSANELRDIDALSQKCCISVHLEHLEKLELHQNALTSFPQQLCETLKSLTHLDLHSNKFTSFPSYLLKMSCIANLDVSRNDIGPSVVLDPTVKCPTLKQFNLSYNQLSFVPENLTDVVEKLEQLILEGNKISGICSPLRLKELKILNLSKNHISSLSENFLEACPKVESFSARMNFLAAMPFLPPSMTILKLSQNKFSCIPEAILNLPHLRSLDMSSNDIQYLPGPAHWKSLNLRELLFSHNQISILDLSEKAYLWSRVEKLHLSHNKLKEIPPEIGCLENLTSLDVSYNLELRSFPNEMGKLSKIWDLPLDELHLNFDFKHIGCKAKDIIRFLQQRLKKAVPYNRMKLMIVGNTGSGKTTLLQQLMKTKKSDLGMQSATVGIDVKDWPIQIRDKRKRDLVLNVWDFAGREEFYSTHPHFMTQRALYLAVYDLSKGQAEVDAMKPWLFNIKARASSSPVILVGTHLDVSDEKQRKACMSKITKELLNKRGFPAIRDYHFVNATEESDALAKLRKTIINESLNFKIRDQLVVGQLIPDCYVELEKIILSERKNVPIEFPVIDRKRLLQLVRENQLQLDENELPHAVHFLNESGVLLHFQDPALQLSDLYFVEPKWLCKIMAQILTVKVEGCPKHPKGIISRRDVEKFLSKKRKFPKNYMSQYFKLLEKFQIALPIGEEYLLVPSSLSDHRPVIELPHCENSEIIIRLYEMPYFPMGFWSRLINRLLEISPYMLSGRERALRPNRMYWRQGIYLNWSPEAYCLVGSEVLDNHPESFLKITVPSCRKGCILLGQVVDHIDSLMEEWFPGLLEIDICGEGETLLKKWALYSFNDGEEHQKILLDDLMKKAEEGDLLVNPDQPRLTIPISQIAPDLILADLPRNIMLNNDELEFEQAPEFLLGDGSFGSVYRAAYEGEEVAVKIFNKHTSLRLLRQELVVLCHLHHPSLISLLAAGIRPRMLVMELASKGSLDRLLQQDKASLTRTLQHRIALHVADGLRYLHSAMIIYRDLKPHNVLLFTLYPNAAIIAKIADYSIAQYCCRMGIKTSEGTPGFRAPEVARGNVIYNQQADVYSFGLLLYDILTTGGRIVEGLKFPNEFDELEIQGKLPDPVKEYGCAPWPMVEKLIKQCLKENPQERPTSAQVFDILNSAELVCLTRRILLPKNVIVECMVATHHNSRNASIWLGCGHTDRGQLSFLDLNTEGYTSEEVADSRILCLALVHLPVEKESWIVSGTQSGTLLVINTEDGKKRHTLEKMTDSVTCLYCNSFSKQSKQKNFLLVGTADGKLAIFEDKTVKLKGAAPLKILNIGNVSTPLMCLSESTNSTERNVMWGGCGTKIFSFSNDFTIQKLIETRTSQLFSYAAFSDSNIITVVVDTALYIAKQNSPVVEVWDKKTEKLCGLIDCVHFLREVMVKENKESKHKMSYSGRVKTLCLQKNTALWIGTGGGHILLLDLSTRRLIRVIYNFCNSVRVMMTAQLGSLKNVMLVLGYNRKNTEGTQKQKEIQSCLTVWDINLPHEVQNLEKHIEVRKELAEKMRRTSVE

Ki [nM] | Compound
5.5 | COc1cc(C(=O)N2CCOCC2)c(OC)cc1Nc1ncc(Cl)c(OC)n1 [Compound 87, [4-(5-Chloro-4-methoxy-pyrimidin-2-ylamino)-2,5-dimethoxy-phenyl]-morpholin-4-yl-methanone]
1.01 | CNc1nc(Nc2cc(C)c(C(=O)N3CCOCC3)cc2OCF)ncc1C(F)(F)F [Compound 88, [5-Fluoromethoxy-2-methyl-4-(4-methylamino-5-trifluoromethyl-pyrimidin-2-ylamino)-phenyl]-morpholin-4-yl-methanone]
2600 | CCN(c1ncc(C(F)(F)F)c(NC)n1)c1cc(C)c(C(=O)N2CCOCC2)cc1OCF [Compound 89, {4-[Ethyl-(4-methylamino-5-trifluoromethyl-pyrimidin-2-yl)-amino]-5-fluoromethoxy-2-methyl-phenyl}-morpholin-4-yl-methanone]
3.2 | CNc1nc(Nc2cc(OC)c(C(=O)N3CCCC3)cc2OCF)ncc1C(F)(F)F [Compound 90, [5-Fluoromethoxy-2-methoxy-4-(4-methylamino-5-trifluoromethyl-pyrimidin-2-ylamino)-phenyl]-pyrrolidin-1-yl-methanone]
0.31 | COc1cc(C(=O)N2CCOCC2)c(F)cc1Nc1ncc(C(F)(F)F)c(NC2CCC2)n1 [Compound 91, [4-(4-Cyclobutylamino-5-trifluoromethyl-pyrimidin-2-ylamino)-2-fluoro-5-methoxy-phenyl]-morpholin-4-yl-methanone]
3.64 | CNc1nc(Nc2cc(F)c(C(=O)N3CCOCC3)cc2C)ncc1C(F)(F)F [Compound 92, [2-Fluoro-5-methyl-4-(4-methylamino-5-trifluoromethyl-pyrimidin-2-ylamino)-phenyl]-morpholin-4-yl-methanone]
5.55 | COc1cc(C(=O)N2CCOCC2)c(C)cc1Nc1ncc(Cl)c(OC)n1 [Compound 93, [4-(5-Chloro-4-methoxy-pyrimidin-2-ylamino)-5-methoxy-2-methyl-phenyl]-morpholin-4-yl-methanone]
2.97 | CCOc1nc(Nc2cc(C)c(C(=O)N3CCOCC3)cc2OC)ncc1Cl [Compound 94, [4-(5-Chloro-4-ethoxy-pyrimidin-2-ylamino)-5-methoxy-2-methyl-phenyl]-morpholin-4-yl-methanone]
6.93 | CNc1nc(Nc2cc(F)c(C(=O)N3CCCC3)cc2OCF)ncc1C(F)(F)F [Compound 95, [2-Fluoro-5-fluoromethoxy-4-(4-methylamino-5-trifluoromethyl-pyrimidin-2-ylamino)-phenyl]-pyrrolidin-1-yl-methanone]
3.13 | COc1cc(C(=O)N2CC[C@H](F)C2)ccc1Nc1ncc(C#N)c(NC2CC2)n1 [Compound 96, 4-Cyclopropylamino-2-[4-((S)-3-fluoro-pyrrolidine-1-carbonyl)-2-methoxy-phenylamino]-pyrimidine-5-carbonitrile]
1.21 | CCNc1nc(Nc2cc(C)c(C(=O)N3CC[C@H](F)C3)cc2OC)ncc1C#N [Compound 97, 4-Ethylamino-2-[4-((S)-3-fluoro-pyrrolidine-1-carbonyl)-2-methoxy-5-methyl-phenylamino]-pyrimidine-5-carbonitrile]
17.5 | CCNc1nc(Nc2ccc(C(=O)N3CC[C@H](F)C3)cc2F)ncc1C#N [Compound 98, 4-Ethylamino-2-[2-fluoro-4-((S)-3-fluoro-pyrrolidine-1-carbonyl)-phenylamino]-pyrimidine-5-carbonitrile]
3.66 | CNc1nc(Nc2cc(C)c(C(=O)N3CCOCC3)cc2OC(C)C)ncc1C(F)(F)F [Compound 99, [5-Isopropoxy-2-methyl-4-(4-methylamino-5-trifluoromethyl-pyrimidin-2-ylamino)-phenyl]-morpholin-4-yl-methanone]
1.05 | CCOc1cc(C(=O)N2CCOCC2)c(C)cc1Nc1ncc(C(F)(F)F)c(NC)n1 [Compound 100, [5-Ethoxy-2-methyl-4-(4-methylamino-5-trifluoromethyl-pyrimidin-2-ylamino)-phenyl]-morpholin-4-yl-methanone]

From patent US8809331B2 (Genentech, Inc., priority 2011, dated 2014)
